Data: PubChem BioAssay (NCI)
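Test compounds were applied to cells in 96-well plates for 48 hours at 5 doses. The concentration for 50% growth inhibition is given as GI50. Definition used: TGI = concentration required for complete inhibition of growth.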

Key:
Assay in all cases: DTP human tumour cell line panel, 48 h; in the data active = GI50 below about 0.43 µM; inactive = the rest
[1] = tested on: SNB-75 CNS
[2] = tested on: OVCAR-5 ovarian
[3] = tested on: DU-145 prostate
[4] = tested on: UACC-257 melanoma
[5] = tested on: OVCAR-3 ovarian
[6] = tested on: K-562 leukemia
[7] = tested on: IGROV1 ovarian
[8] = tested on: T-47D breast
[9] = tested on: SF-539 CNS
[10] = tested on: HL-60(TB) leukemia
[11] = tested on: SK-MEL-5 melanoma
[12] = tested on: RPMI-8226 leukemia
[13] = tested on: NCI-H23 lung
[14] = tested on: CCRF-CEM leukemia
[15] = tested on: BT-549 breast
[16] = tested on: OVCAR-8 ovarian
[17] = tested on: PC-3 prostate
[18] = tested on: CAKI-1 renal
[19] = tested on: SF-268 CNS
[20] = tested on: U251 CNS
[21] = tested on: NCI-H460 lung
[22] = tested on: A549 NSCLC
[23] = tested on: NCI-H522 lung
[24] = tested on: SF-295 CNS
[25] = tested on: SK-MEL-28 melanoma
[26] = tested on: MDA-MB-435
[27] = tested on: A498 renal
[28] = tested on: SK-OV-3 ovarian
[29] = tested on: SW-620 colon
[30] = tested on: ACHN renal
[31] = tested on: KM12 colon
[32] = tested on: M14 melanoma
[33] = tested on: OVCAR-4 ovarian
[34] = tested on: MCF7 breast
[35] = tested on: MDA-MB-231 breast
[36] = tested on: HCC-2998 colon
[37] = tested on: HCT-15 colon
[38] = tested on: RXF 393 renal
[39] = tested on: UACC-62 melanoma
[40] = tested on: NCI-H226 lung
[41] = tested on: SNB-19 CNS
[42] = tested on: TK-10 renal
[43] = tested on: SR leukemia
[44] = tested on: MOLT-4 leukemia
[45] = tested on: HOP-62 NSCLC
[46] = tested on: HS 578T breast
[47] = tested on: 786-0 renal
[48] = tested on: HCT-116 colon
[49] = tested on: LOX IMVI melanoma
[50] = tested on: SK-MEL-2 melanoma
[51] = tested on: NCI/ADR-RES ovarian
[52] = tested on: HT29 colon
[53] = tested on: SN12C renal
[54] = tested on: UO-31 renal
[55] = tested on: COLO 205 colon
[56] = tested on: MALME-3M melanoma
[57] = tested on: EKVX NSCLC

Nc1ccccc1SC(CC(=O)c1ccccc1)c1cccc([N+](=O)[O-])c1 (stereo not given)
19 µM: TGI [12]
29.5 µM: TGI [23]
6.46 µM: TGI [43]
35.1 µM: TGI [42]
35.8 µM: TGI [50]
50.8 µM: TGI [14]
30.7 µM: TGI [9]
30.3 µM: TGI [24] | TGI [25]
4.07 µM: TGI [49]
31.3 µM: TGI [19] | TGI [36] | TGI [56]
28.5 µM: TGI [16]
38.8 µM: TGI [21]
36.7 µM: TGI [22]
28 µM: TGI [3]
32.2 µM: TGI [2]
27.8 µM: TGI [33]
inactive: GI50 [1] 13.6 µM | GI50 [2] 17.4 µM | GI50 [3] 14.7 µM | GI50 [4] 17.1 µM | GI50 [5] 12.8 µM | GI50 [6] 3.72 µM | GI50 [7] 13.1 µM | GI50 [8] 12.1 µM | GI50 [9] 16.8 µM | GI50 [10] 17.3 µM | GI50 [11] 15.4 µM | GI50 [12] 3.89 µM | GI50 [13] 17.6 µM | GI50 [14] 16 µM | GI50 [15] 17 µM | GI50 [16] 14.9 µM | GI50 [17] 12.5 µM | GI50 [18] 16.4 µM | GI50 [19] 16.3 µM | GI50 [20] 7.51 µM | GI50 [21] 19.4 µM | GI50 [22] 18.6 µM | GI50 [23] 15 µM | GI50 [24] 16.2 µM | GI50 [25] 16.6 µM | GI50 [26] 16.3 µM | GI50 [27] 16.6 µM | GI50 [28] 18.1 µM | GI50 [29] 3.03 µM | GI50 [30] 14.5 µM | GI50 [31] 6.24 µM | GI50 [32] 17.3 µM | GI50 [33] 14.6 µM | GI50 [34] 2.6 µM | GI50 [35] 14.4 µM | GI50 [36] 17.3 µM | GI50 [37] 11.5 µM | GI50 [38] 15 µM | GI50 [39] 13.8 µM | GI50 [40] 17.1 µM | GI50 [41] 14.3 µM | GI50 [42] 20.7 µM | GI50 [43] 2.55 µM | GI50 [44] 17.6 µM | GI50 [45] 15.5 µM | GI50 [46] 21.5 µM | GI50 [47] 18.9 µM | GI50 [48] 1.96 µM | GI50 [49] 1.99 µM | GI50 [50] 20.6 µM | GI50 [51] 20.4 µM | GI50 [52] 5.79 µM | GI50 [53] 13.9 µM | GI50 [54] 3.11 µM | GI50 [55] 19.1 µM | GI50 [56] 16.9 µM
25.5 µM: TGI [17]
29 µM: TGI [11]
32.5 µM: TGI [32]
28.1 µM: TGI [7]
23 µM: TGI [52]
27.4 µM: TGI [41]
36.2 µM: TGI [8]
28.4 µM: TGI [37]
32 µM: TGI [28]
13.6 µM: TGI [6]
28.9 µM: TGI [45]
40.1 µM: TGI [10]
31.1 µM: TGI [4]
12.2 µM: TGI [29]
27.9 µM: TGI [30]
35.2 µM: TGI [40]
26.7 µM: TGI [1]
26.9 µM: TGI [39] | TGI [53]
18 µM: TGI [34]
20.5 µM: TGI [54]
28.3 µM: TGI [35]
30.4 µM: TGI [18] | TGI [26]
32.6 µM: TGI [13]
30.9 µM: TGI [15] | TGI [27]
28.6 µM: TGI [38]
42.8 µM: TGI [51]
34.7 µM: TGI [55]
25.8 µM: TGI [5]
3.97 µM: TGI [48]
50.5 µM: TGI [44]
19.3 µM: TGI [31]
20.7 µM: TGI [20]
57.3 µM: TGI [46]
33.3 µM: TGI [47]

Cn1ccc2c3c(Oc4ccc(NC(N)=O)cc4)ccnc3ccc21
> 100 µM: TGI [2] | TGI [3] | TGI [4] | TGI [5] | TGI [6] | TGI [7] | TGI [8] | TGI [9] | TGI [11] | TGI [12] | TGI [13] | TGI [15] | TGI [16] | TGI [17] | TGI [18] | TGI [19] | TGI [20] | TGI [21] | TGI [22] | TGI [23] | TGI [24] | TGI [25] | TGI [26] | TGI [27] | TGI [28] | TGI [29] | TGI [30] | TGI [31] | TGI [32] | TGI [33] | TGI [34] | TGI [35] | TGI [36] | TGI [37] | TGI [38] | TGI [39] | TGI [40] | TGI [41] | TGI [42] | TGI [43] | TGI [44] | TGI [45] | TGI [46] | TGI [47] | TGI [57] | TGI [48] | TGI [49] | TGI [50] | TGI [51] | TGI [52] | TGI [53] | TGI [54] | TGI [55] | TGI [56]
inactive: GI50 [2] > 100 µM | GI50 [3] > 100 µM | GI50 [4] > 100 µM | GI50 [5] > 100 µM | GI50 [6] > 100 µM | GI50 [7] > 100 µM | GI50 [8] > 100 µM | GI50 [9] > 100 µM | GI50 [11] 20.7 µM | GI50 [12] > 100 µM | GI50 [13] > 100 µM | GI50 [15] > 100 µM | GI50 [16] > 100 µM | GI50 [17] > 100 µM | GI50 [18] > 100 µM | GI50 [19] > 100 µM | GI50 [20] > 100 µM | GI50 [21] > 100 µM | GI50 [22] > 100 µM | GI50 [23] > 100 µM | GI50 [24] > 100 µM | GI50 [25] > 100 µM | GI50 [26] > 100 µM | GI50 [27] > 100 µM | GI50 [28] > 100 µM | GI50 [29] > 100 µM | GI50 [30] > 100 µM | GI50 [31] > 100 µM | GI50 [32] > 100 µM | GI50 [33] > 100 µM | GI50 [34] > 100 µM | GI50 [35] > 100 µM | GI50 [36] > 100 µM | GI50 [37] > 100 µM | GI50 [38] > 100 µM | GI50 [39] > 100 µM | GI50 [40] > 100 µM | GI50 [41] > 100 µM | GI50 [42] > 100 µM | GI50 [43] > 100 µM | GI50 [44] > 100 µM | GI50 [45] > 100 µM | GI50 [46] 40.1 µM | GI50 [47] > 100 µM | GI50 [57] > 100 µM | GI50 [48] > 100 µM | GI50 [49] > 100 µM | GI50 [50] > 100 µM | GI50 [51] > 100 µM | GI50 [52] > 100 µM | GI50 [53] > 100 µM | GI50 [54] > 100 µM | GI50 [55] > 100 µM | GI50 [56] > 100 µM
